In general, pKi refers to the negative decadic logarithm of the Ki, by convention in mol/L.

For 22 molecules, Ki results are on record in patent US20060100431A1, “Biologically active compounds” (Amura Therapeutics Limited, priority 2002, published 2006).

pKi: −log10 of the molar value.

One assay deals with T1, CPB2.8ΔCTE (Leishmania mexicana, UniProt P36400).
T1 construct: Wild-type recombinant CPB without the C-terminal extention (i.e. CPB2.8ΔCTE); Dr. Jeremy Mottram (Wellcome Centre for Molecular Parasitology, University of Glasgow)
Kind of assay: Leishmania mexicana cysteine protease B (CPB) peptidase activity assay (Ki). Particulars: Ki, inhibitors of Leismania mexicana CPB protease. Type of assay: biochemical. An outline of the steps: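 Apparent Ki was derived by regression of activity against inhibitor concentration, assuming pure-competitive reversible binding. Reaction: 0.25 nM CPB lacking the C-terminal extension, pH 5.5 acetate buffer (1 mM EDTA, 200 mM NaCl, 10 mM DTT), 25 °C, followed by continuous substrate fluorescence.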

The target in the next assay is Wild-type cruzipain (Trypanosoma cruzi, UniProt P25779). Put plainly: Trypanosoma cruzi cruzipain peptidase activity assay (Ki). The settings on record: read-out: Ki, inhibitors of cruzain and cruzipains. In kind it is biochemical. An outline of the steps: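 Native cruzipain from T. cruzi Dm28 epimastigotes, 2.5 nM, in 100 mM sodium phosphate pH 6.75 with 1 mM EDTA and 10 mM L-cysteine, 25 °C, DMSO <1%. Rates taken from continuous fluorogenic substrate read; Ki by regression assuming reversible pure-competitive inhibition.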
Sequence of Wild-type cruzipain (P25779 whole entry): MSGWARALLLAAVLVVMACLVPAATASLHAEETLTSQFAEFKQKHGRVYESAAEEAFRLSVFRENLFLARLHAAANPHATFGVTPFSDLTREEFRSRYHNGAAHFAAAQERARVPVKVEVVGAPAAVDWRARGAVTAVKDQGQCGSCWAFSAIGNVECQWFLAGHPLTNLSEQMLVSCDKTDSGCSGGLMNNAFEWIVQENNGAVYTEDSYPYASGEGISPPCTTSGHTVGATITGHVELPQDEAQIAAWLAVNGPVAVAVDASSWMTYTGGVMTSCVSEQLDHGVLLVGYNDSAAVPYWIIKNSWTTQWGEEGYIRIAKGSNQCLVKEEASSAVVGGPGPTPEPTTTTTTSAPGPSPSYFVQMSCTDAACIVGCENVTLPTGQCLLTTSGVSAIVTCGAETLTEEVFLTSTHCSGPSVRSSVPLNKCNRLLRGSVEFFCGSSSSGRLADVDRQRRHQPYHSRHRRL

T1 sequence (P36400 126-343, stated change not applied): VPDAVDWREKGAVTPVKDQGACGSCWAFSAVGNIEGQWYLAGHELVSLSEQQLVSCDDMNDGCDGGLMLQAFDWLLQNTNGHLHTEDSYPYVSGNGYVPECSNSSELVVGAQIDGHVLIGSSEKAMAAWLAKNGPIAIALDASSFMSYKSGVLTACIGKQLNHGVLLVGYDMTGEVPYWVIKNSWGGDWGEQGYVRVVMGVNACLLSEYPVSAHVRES

Take `CC(C)C[C@H](NC(=O)c1ccc(N(C)C)cc1)C(=O)N1CC[C@@H]2[C@H]1C(=O)CN2C(=O)CC1CCCCC1` [Example 137, (3aR,6aS)-N-{(1S)-1-[4-(2-Cyclohexyl-acetyl)-6-oxo-hexahydro-pyrrolo[3,2-b]pyrrole-1-carbonyl]-3-methyl-butyl}-4-dimethylamino-benzamide]: the pKi at CPB2.8ΔCTE and at Wild-type cruzipain was above 5.30 each time.

Turning to `CC(C)C[C@H](NC(=O)c1ccc(N(C)C)cc1)C(=O)N1CC[C@@H]2[C@H]1C(=O)CN2C(=O)C1CC=CCC1` (stereo partly drawn) [Example 138, (3aR,6aS)-N-{(1S)-1-[4-(Cyclohex-3-enecarbonyl)-6-oxo-hexahydro-pyrrolo[3,2-b]pyrrole-1-carbonyl]-3-methyl-butyl}-4-dimethylamino-benzamide], the pKi at CPB2.8ΔCTE and at Wild-type cruzipain was above 5.30 each time.

With `COC1CCCC(C(=O)N2CC(=O)[C@@H]3[C@H]2CCN3C(=O)[C@H](CC(C)C)NC(=O)c2ccc(N(C)C)cc2)C1` (stereo partly drawn) [Example 139, (3aR,6aS)-4-Dimethylamino-N-{(1S)-1-[4-(3-methoxy-cyclohexanecarbonyl)-6-oxo-hexahydro-pyrrolo[3,2-b]pyrrole-1-carbonyl]-3-methyl-butyl}-benzamide], the pKi on CPB2.8ΔCTE and at Wild-type cruzipain was above 5.30 each time.

As for `CC(C)C[C@H](NC(=O)c1ccc(N(C)C)cc1)C(=O)N1CC[C@@H]2[C@H]1C(=O)CN2C(=O)N1CCOCC1` [Example 142, (3aR,6aS)-4-Dimethylamino-N-{(1S)-3-methyl-1-[4-(morpholin-4-carbonyl)-6-oxo-hexahydro-pyrrolo[3,2-b]pyrrole-1-carbonyl]-butyl}-benzamide], the pKi at CPB2.8ΔCTE and at Wild-type cruzipain was above 5.30 throughout.

For the molecule `CC(C)C[C@H](NC(=O)c1ccc(N(C)C)cc1)C(=O)N1CC[C@@H]2[C@H]1C(=O)CN2C(=O)[C@H](CO)NC(=O)OCc1ccccc1` [Example 147, (3aS,6aR)-((1S)-2-{4-[(2S)-2-(4-Dimethylamino-benzoylamino)-4-methyl-pentanoyl]-3-oxo-hexahydro-pyrrolo[3,2-b]pyrrole-1-yl}-1-hydroxymethyl-2-oxo-ethyl)-carbamic acid benzyl ester], the pKi on CPB2.8ΔCTE and on Wild-type cruzipain was above 5.30 in each case.

As for `CC(C)C[C@H](NC(=O)c1ccc(N(C)C)cc1)C(=O)N1CC[C@@H]2[C@H]1C(=O)CN2C(=O)[C@@H](N)CC(C)C` [Example 150, (3aR,6aS)-N-{(1S)-1-[4-((2S)-2-Amino-4-methyl-pentanoyl)-6-oxo-hexahydro-pyrrolo[3,2-b]pyrrole-1-carbonyl]-3-methyl-butyl}-4-dimethylamino-benzamide], the pKi at CPB2.8ΔCTE and on Wild-type cruzipain was above 5.30 throughout.

In the case of `CC(C)C[C@H](NC(=O)c1ccc(N(C)C)cc1)C(=O)N1CC[C@@H]2[C@H]1C(=O)CN2C(=O)[C@H](Cc1ccccc1)NC(=O)OCc1ccccc1` [Example 160, (3aS,6aR)-((1S)-1-Benzyl-2-{-[(2S)-2-(4-dimethylamino-benzoylamino)-4-methyl-pentanoyl]-3-oxo-hexahydro-pyrrolo[3,2-b]pyrrole-1-yl}-2-oxo-ethyl)-carbamic acid benzyl ester], the pKi on CPB2.8ΔCTE and on Wild-type cruzipain was above 5.30 throughout.

In the case of `CC(=O)Nc1ccsc1C(=O)N1CC(=O)[C@@H]2[C@H]1CCN2C(=O)[C@H](CC(C)C)NC(=O)c1ccc(N(C)C)cc1` [Example 165, (3aR,6aS)-N-{(1S)-[4-(3-Acetylamino-thiophene-2-carbonyl)-6-oxo-hexahydro-pyrrolo[3,2-b]pyrrole-1-carbonyl]-3-methyl-butyl}-4-dimethylamino-benzamide], the negative-log Ki (pKi) at CPB2.8ΔCTE and at Wild-type cruzipain was above 5.30 each time.

For `CC(C)C[C@H](NC(=O)c1ccc(N(C)C)cc1)C(=O)N1CC[C@@H]2[C@H]1C(=O)CN2C(=O)Nc1ccccc1` [Example 167, (3aS,6aR)-4-[(2S)-2-(4-Dimethylamino-benzoylamino)-4-methyl-pentanoyl]-3-oxo-hexahydro-pyrrolo[3,2-b]pyrrole-1-carboxylic acid phenylamide], the pKi on CPB2.8ΔCTE and on Wild-type cruzipain was above 5.30 in each case.

`CC(C)C[C@H](NC(=O)c1ccc(C(C)(C)C)cc1)C(=O)N1CC[C@@H]2[C@H]1C(=O)CN2C(=O)Nc1ccccc1` [Example 190, (3aS,6aR)-4-(2S-2-(4-tert-Butyl-benzoylamino)-4-methyl-pentanoyl]-3-oxo-hexahydro-pyrrolo[3,2-b]pyrrole-1-carboxylic acid phenylamide]: the pKi at CPB2.8ΔCTE and on Wild-type cruzipain was above 5.30 each time.

With `CC(C)CCC(=O)N1CC(=O)[C@@H]2[C@H]1CCN2C(=O)[C@H](CC(C)C)NC(=O)c1ccc(C(C)(C)C)cc1` [Example 191, (3aR,6aS)-4-tert-Butyl-N-{(1S)-3-methyl-1-[4-(4-methyl-pentanoyl)-6-oxo-hexahydro-pyrrolo[3,2-b]pyrrole-1-carbonyl]-butyl}-benzamide], the pKi on CPB2.8ΔCTE and at Wild-type cruzipain was above 5.30 each time.

`CC(C)C[C@H](NC(=O)c1ccc(C(C)(C)C)cc1)C(=O)N1CC[C@@H]2[C@H]1C(=O)CN2C(=O)[C@@H](N)CC(C)C` [Example 192, (3aR,6aS)-N-{(1S)-1-[4-((2S)-2-Amino-4-methyl-pentanoyl)-6-oxo-hexahydro-pyrrolo[3,2-b]pyrrole-1-carbonyl]-3-methyl-butyl}-4-tert-butyl-benzamide]: the pKi on CPB2.8ΔCTE and at Wild-type cruzipain was above 5.30 throughout.

As to `CC(C)C[C@H](NC(=O)c1ccc(N(C)C)cc1)C(=O)N1CC[C@@H]2[C@H]1C(=O)CN2C(=O)[C@@H](N)[C@@H](C)O` [Example 207, (3aR,6aS)-N-{(1S)-1-[4-((2S,3R)-2-Amino-3-hydroxy-butyryl)-6-oxo-hexahydro-pyrrolo[3,2-b]pyrrole-1-carbonyl]-3-methyl-butyl}-4-dimethylamino-benzamide], the pKi at CPB2.8ΔCTE and on Wild-type cruzipain was above 5.30 throughout.

Take `CC(C)C[C@H](NC(=O)c1ccc(N(C)C)cc1)C(=O)N1CC[C@@H]2[C@H]1C(=O)CN2C(=O)[C@@H](N)[C@H](C)O` [Example 208, (3aR,6aS)-N-{(1S)-1-[4-((2S,3S)-2-Amino-3-hydroxy-butyryl)-6-oxo-hexahydro-pyrrolo[3,2-b]pyrrole-1-carbonyl]-3-methyl-butyl}-4-dimethylamino-benzamide]: the pKi at CPB2.8ΔCTE and on Wild-type cruzipain was above 5.30 throughout.

As for `CC[C@H](C)[C@H](N)C(=O)N1CC(=O)[C@@H]2[C@H]1CCN2C(=O)[C@H](CC(C)C)NC(=O)c1ccc(N(C)C)cc1` [Example 209, (3aR,6aS)-N-{(1S)-1-[4-((2S,3S)-2-Amino-3-methyl-pentanoyl)-6-oxo-hexahydro-pyrrolo[3,2-b]pyrrole-1-carbonyl]-3-methyl-butyl}-4-dimethylamino-benzamide], the pKi at CPB2.8ΔCTE and on Wild-type cruzipain was above 5.30 each time.

Turning to `CC(C)C[C@H](NC(=O)c1ccc(N(C)C)cc1)C(=O)N1CC[C@@H]2[C@H]1C(=O)CN2C(=O)[C@@H](N)CC(C)(C)C` [Example 212, (3aR,6aS)-N-{(1S)-1-[4-((2S)-2-Amino-4,4-dimethyl-pentanoyl)-6-oxo-hexahydro-pyrrolo[3,2-b]pyrrole-1-carbonyl]-3-methyl-butyl}-4-dimethylamino-benzamide], the pKi at CPB2.8ΔCTE and at Wild-type cruzipain was above 5.30 throughout.

On to `CC(=O)N[C@@H](CCC(C)C)C(=O)N1CC(=O)[C@@H]2[C@H]1CCN2C(=O)[C@H](CC(C)C)NC(=O)c1ccc(N(C)C)cc1` [Example 214, (3aR,6aS)-N-{(1S)-1-[4-((2S)-2-Acetylamino-5-methyl-hexanoyl)-6-oxo-hexahydro-pyrrolo[3,2-b]pyrrole-1-carbonyl]-3-methyl-butyl}-4-dimethylamino-benzamide], for which the pKi on CPB2.8ΔCTE and on Wild-type cruzipain was above 5.30 each time.

As to `CN[C@@H](CC(C)C)C(=O)N1CC(=O)[C@@H]2[C@H]1CCN2C(=O)[C@H](CC(C)C)NC(=O)c1ccc(N(C)C)cc1` [Example 220, (3aR,6aS)-4-Dimethylamino-N-{(1S)-3-methyl-1-[4-((2S)-4-methyl-2-methylamino-pentanoyl)-6-oxo-hexahydro-pyrrolo[3,2-b]pyrrole-1-carbonyl]-butyl}-benzamide], the pKi on CPB2.8ΔCTE and on Wild-type cruzipain was above 5.30 each time.

Consider `CC(C)C[C@H](NC(=O)c1ccc(N(C)C)cc1)C(=O)N1CC[C@@H]2[C@H]1C(=O)CN2C(=O)[C@@H](O)CC(C)C` [Example 233, (3aR,6aS)-4-Dimethylamino-N-{(1S)-1-[4-((2S)2-hydroxy-4 methyl-pentanoyl)-6-oxo-hexahydro-pyrrolo[3,2-b]pyrrole-1-carbonyl]-3-methyl-butyl}-benzamide], for which the pKi at CPB2.8ΔCTE and at Wild-type cruzipain was above 5.30 each time.

For the molecule `CC(C)C[C@H](NC(=O)c1ccc(N(C)C)cc1)C(=O)N1CC[C@@H]2[C@H]1C(=O)CN2C(=O)N1CCCC1` [Example 235, (3aR,6aS)-4-Dimethylamino-N-{(1S)-3-methyl-1-[6-oxo-4-(pyrrolidine-1-carbonyl)-hexahydro-pyrrolo[3,2-b]pyrrole-1-carbonyl]-butyl}-benzamide], the pKi on CPB2.8ΔCTE and at Wild-type cruzipain was above 5.30 each time.

As to `CC(C)C[C@H](NC(=O)c1ccc(N(C)C)cc1)C(=O)N1OC[C@@H]2[C@H]1C(=O)CN2C(=O)c1ccccc1` [Example 248, (3aS,6aS)-N-[(1S)-1-(4-Benzoyl-6-oxo-hexahydro-2-oxa-1,4-diaza-pentalene-1-carbonyl)-3-methyl-butyl]-4-dimethylamino-benzamide], the pKi at CPB2.8ΔCTE and on Wild-type cruzipain was above 5.30 in each case.

Regarding `NCc1ccc(C(=O)N[C@@H](Cc2ccc(O)cc2)C(=O)N2CC[C@@H]3[C@H]2C(=O)CN3C(=O)c2ccccc2)cc1` [Example 318], the pKi on CPB2.8ΔCTE and at Wild-type cruzipain was above 5.30 throughout.
